# Read-outs that look alike come from different tables or passages of the source.
# What was measured:
# [1] = target: T1, 1000001: Carboxy-terminus phosphatase domain of protein tyrosine phosphatase (2NV5) (Mus musculus, UniProt Q64487); assay: Thermal shift (thermal melt) assay, Sypro orange; type: binding, M. musculus; set-up: key to Q (quality score): Q = ΔFmelt/ΔFtotal; 1 = high-quality curve, 0 = no transition; settings: for Q (quality score): ratio ΔFmelt/ΔFtotal
# T1 construct: The C-terminal phosphatase domain from R. norvegicus (PDB ID: 2NV5) (1000001); New York structural genomics consortium (gift)
# T1 sequence (Q64487 1331-1621): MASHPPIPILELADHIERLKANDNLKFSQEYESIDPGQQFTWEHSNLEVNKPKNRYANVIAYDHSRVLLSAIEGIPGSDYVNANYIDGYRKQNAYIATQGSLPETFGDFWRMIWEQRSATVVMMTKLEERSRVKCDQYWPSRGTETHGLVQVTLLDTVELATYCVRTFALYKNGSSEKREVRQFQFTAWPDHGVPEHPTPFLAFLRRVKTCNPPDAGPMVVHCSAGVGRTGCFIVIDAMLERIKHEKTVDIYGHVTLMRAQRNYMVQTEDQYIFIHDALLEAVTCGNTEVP
# Experimental: (§1) High throughput thermal shift assays were carried out following established guidelines (Additional file 1: Table S1). Protein melting curves were obtained from samples aliquoted in 96-well plates using a RealPlex quantitative PCR instrument from Eppendorf (Eppendorf, NY, USA), with Sypro orange dye from Invitrogen as the fluorescent probe. A uniform final concentration of 5 X (supplied as a 5000 X stock solution) was used in all experiments. The dye was excited at 465 nm and emission recorded at 580 nm using the instrument’s filters. A heating ramp of 1°C/min from 25°C to 74°C was used, and one data point acquired for each degree increment. For standardization, different buffers and pH were checked. Thereafter, 100 mM HEPES pH 7.3 and 150 mM NaCl were used in all unfolding experiments. The volume of each reaction was 20 μl, and appropriate dye and protein controls were included. All experiments were done with a minimum of two replicates, with the mean value considered for further analysis. Several drugs/small molecules interact with Sypro orange and lead to aberrant signal enhancements. An additional control to rule out drug-dye interaction was carried out with all the constituents kept constant except for the protein of interest. The protein/protein-drug curves were reported after subtracting the respective dye alone/drug-dye curves.
# (§2) Each melting curve was assigned a quality score (Q), the ratio of the melting-associated increase in fluorescence (ΔFmelt) to the total fluorescence range (ΔFtotal). Q = 1 is a high-quality curve, while Q = 0 indicates no thermal transition. Though an arbitrary Q value cutoff was not applied to judge curve quality, the curves were manually curated with Q values reported. […] These were ignored (see Table 1).
# (§3) Subsequent to standardization, (see SI Methods), the validity of the top 1% of […]^comb’s predictions on the test set of eight diverse proteins was examined. To be conservative, we focused only on those protein/ligand pairs showing single sigmoidal thermal transition curves. The fit to Boltzmann’s equation (Eq. 1) was employed to estimate the melting temperature from the observed intensity, I.
# (§4) (4) I=Imin+Imax-Imin/1+e^Tm-T/a
# (§5) Imin and Imax are the minimum and maximum intensities; a denotes the slope of the curve at the transition midpoint temperate, Tm. To estimate thermodynamic parameters, both van’t Hoff and Gibbs-Helmholtz analyses were done. To estimate the approximate ligand-binding affinity at Tm, Eq. (2) from reference was used with slight modifications; ΔCp is ignored.
# (§6) (5) KLTm=exp-ΔH/R1/Tm-1/To/L
# (§7) KL(Tm) is the ligand association constant and [L] is the free ligand concentration at Tm ([LTm] ~ [L]total, when [L]total > > the total concentration of protein. KD is the inverse of KL(Tm).
# (§8) Thermal unfolding of the eight benchmark proteins was carried out in a 20 μl reaction mix with 100 mM HEPES pH 7.3, 150 mM NaCl, 5 X Sypro orange dye, 10 μM protein and 1 mM of all the predicted ligands.
# [2] = target: T2, 1000006: catalytic domain of protein tyrosine phosphatase (2G59) (Homo sapiens, UniProt Q16827); assay: Thermal shift (thermal melt) assay, Sypro orange; type: binding, H. sapiens; settings: for Q (quality score): ratio ΔFmelt/ΔFtotal
# T2 construct: the catalytic domain of PTP from H. sapiens (PDB ID: 2G59) (1000006); New York structural genomics consortium (gift)
# T2 sequence (Q16827 938-1195 limits assumed): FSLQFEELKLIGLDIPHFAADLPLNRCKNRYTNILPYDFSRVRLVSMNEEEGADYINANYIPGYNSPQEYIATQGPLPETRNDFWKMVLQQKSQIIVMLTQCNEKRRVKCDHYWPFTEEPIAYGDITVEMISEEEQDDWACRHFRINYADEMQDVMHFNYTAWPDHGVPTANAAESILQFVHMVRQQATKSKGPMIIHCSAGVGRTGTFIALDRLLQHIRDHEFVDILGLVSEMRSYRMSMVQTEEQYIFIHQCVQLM
# Experimental: as §1, §2, §3, §4, §5, §6, §7, §8
# [3] = system: HCT-116 colon carcinoma cell line; assay: Cytotoxic assay on cancer cell line; type: cell-based; settings: for IC50: Homo sapiens, HCT-116, inhibitory concentration for 50% growth inhibition, read-out: HCT-116 (IC-50)
# Experimental: Antimicrobial and anti-cancer tests were performed as in [80].
# [4] = target: E. coli dihydrofolate reductase (DHFR) (Escherichia coli, UniProt P0ABQ4); assay: biochemical; type: binding; settings: for Q (quality score): ratio ΔFmelt/ΔFtotal of the melting curve; for ΔTm: thermal shift, in °C (unit assumed)
# E. coli dihydrofolate reductase (DHFR), sequence (P0ABQ4 whole entry): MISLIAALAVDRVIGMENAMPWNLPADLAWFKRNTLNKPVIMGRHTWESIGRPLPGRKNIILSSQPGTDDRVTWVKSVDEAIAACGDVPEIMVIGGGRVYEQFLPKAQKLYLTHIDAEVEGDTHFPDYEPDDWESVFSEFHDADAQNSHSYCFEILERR
# Experimental: as §1, with “The dye was excited at 465 nm and emission recorded at 580 nm using the instrument’s filters. A heating ramp of 1°C/min from 25°C to 74°C was used, and one data point acquired for each degree increment.” left out
# Each melting curve was assigned a quality score (Q), the ratio of the melting-associated increase in fluorescence (ΔFmelt) to the total fluorescence range (ΔFtotal). Q = 1 is a high-quality curve, while Q = 0 indicates no thermal transition. Though an arbitrary Q value cutoff was not applied to judge curve quality, the curves were manually curated with Q values reported.
# as §3, §4, §5, §6, §7, §8
# [5] = Table S4, protein 1000001, computed from the thermal shifts obtained, read-out: KD (Approx)
# [6] = Table S4, protein 1000001, in °C (unit assumed)
# [7] = Table S6, 1000001, known binders of 1000001, in °C (unit assumed)
# [8] = Table S6, known binders of 1000001 tested on 1000006, in °C (unit assumed)
# [9] = Table S4, protein 1000006, computed from the thermal shifts obtained, read-out: KD (Approx)
# [10] = Table S4, protein 1000006, in °C (unit assumed)
# [11] = Table S3, computed from the thermal shifts obtained, read-out: KD (Approx)
# [12] = approximate, computed from the thermal shift, read-out: KD
# [13] = inhibitory concentration for 50% growth inhibition
SMILES,"Kd [1, 5]","ΔTm [1, 6]","Q (quality score) ([1]; Table S4, protein 1000001)","ΔTm [1, 7]","ΔTm [2, 8]",Q (quality score) ([4]; Table S3),further results
O=S(=O)(O)c1ccc(N=Nc2ccccc2)cc1 [NSC 1847],~43800 nM,4.1,0.5,4.23,0,,
Nc1cc(-c2ccccc2)ccc1O [NSC 7950],,,,,,,"Kd [2, 9]: ~271000 nM; ΔTm [2, 10]: 1.22; Q (quality score) ([2]; Table S4, protein 1000006): 0.3"
COc1cc(C(=O)C(=O)c2ccc(O)c(OC)c2)ccc1O [NSC 16722],,,,,,,"Kd [2, 9]: ~107000 nM; ΔTm [2, 10]: 3.09; Q (quality score) ([2]; Table S4, protein 1000006): 0.4"
CCOc1ccc(Nc2c3ccccc3nc3ccccc23)cc1 [NSC 30205],~6850 nM,7.3,0.01,9.91,,,"HCT-116 (IC-50) ([3]; inhibitory concentration for 50% growth inhibition, listed as 30205): 0.146 µg/mL; HCT-116 (IC-50) ([3]; inhibitory concentration for 50% growth inhibition, listed as NSC30205): 0.15 µg/mL; ΔTm ([2]; Table S6, known binders of 1000001 tested on 1000006): Ambiguous"
Cc1ccc(N=Nc2ccc(N)cc2C)c(S(N)(=O)=O)c1 [NSC 45527],~567 nM,11.7,0.04,11.79,5.48,,
O=C(Nc1ccc(Oc2ccc(NC(=O)Nc3ccc([N+](=O)[O-])cc3)cc2)cc1)Nc1ccc([N+](=O)[O-])cc1 [NSC 80735],,,,,,0.3,"HCT-116 (IC-50) ([3]; Table S3): 10.9; IC50 against HCT-116 ([3]; as worded): 10.9 µg/mL; Kd [4, 11]: ~1710 nM; ΔTm ([4]; Table S3): 18.16; Kd [4, 12]: 1700 nM"
Nc1cc([N+](=O)[O-])ccc1Nc1ccc(O)cc1 [NSC 92794],,,,,,,"HCT-116 (IC-50) ([3]; inhibitory concentration for 50% growth inhibition, listed as 92794): 9.78 µg/mL; HCT-116 (IC-50) ([3]; inhibitory concentration for 50% growth inhibition, listed as NSC92794): 9.8 µg/mL; Kd [2, 9]: ~162000 nM; ΔTm [2, 10]: 2.26; Q (quality score) ([2]; Table S4, protein 1000006): 0.004; Kd [2, 12]: 162000 nM"
C1=Cc2ccccc2Nc2ccccc21 [NSC 123458],,,,,,0.6,"Kd [4, 11]: ~5640 nM; ΔTm ([4]; Table S3): 14.17"
COc1cc(NCc2ccccc2O)c2ncccc2c1 [NSC 130801],,,,,,1.1,"Kd [4, 11]: ~75000 nM; ΔTm ([4]; Table S3): 5.84"
Nc1ccc(Oc2ccc(N)c([N+](=O)[O-])c2)cc1[N+](=O)[O-] [NSC 133351],,,,,,,"Kd [2, 9]: ~168 nM; Q (quality score) ([2]; Table S4, protein 1000006): 0.1; Kd ([2]; approximate, computed from the thermal shift, listed as 133351, read-out: KD): 168 nM; Kd ([2]; approximate, computed from the thermal shift, listed as NSC133351, read-out: KD): ~168 nM; ΔTm ([2]; thermal shift, 1 mM ligand, 10 μM protein): 16.76 °C"
CC(C)=C(c1ccc(Cl)cc1)c1c(N)ncnc1N [NSC 157522],,,,,,0.4,"Kd [4, 11]: ~19500 nM; ΔTm ([4]; Table S3): 10.13"
O=C(Nc1ccc(C(=O)O)c(O)c1)c1ccccc1 [NSC 159686],,,,,,0.6,Kd [4]: ~12700 nM
N/C(CC(=O)Nc1cc(C(F)(F)F)ccc1Cl)=N\O [NSC 379536],,,,,,0.3,"Kd [4, 11]: ~28900 nM; ΔTm ([4]; Table S3): 8.86"
"Nc1nc2[nH]cc(CCc3ccc(C(=O)N[C@@H](CCC(=O)O)C(=O)O)cc3)c2c(=O)[nH]1 [NSC 698037, pemetrexed, reference compound]",,,,,,1.3,
"C#CCC(Cc1cnc2nc(N)nc(N)c2n1)c1ccc(C(=O)N[C@@H](CCC(=O)O)C(=O)O)cc1 (stereo partly shown) [NSC 754230, pralatrexate, reference compound]",,,,,,0.1,"IC50 [3]: < 0.031 µg/mL; Kd [4, 11]: ~499 nM"

# Second part, led by results:
"Kd [1, 5]","ΔTm [1, 6]","Q (quality score) ([1]; Table S4, protein 1000001)","ΔTm [1, 7]","ΔTm [2, 8]",SMILES,Q (quality score) ([4]; Table S3),further results
~6470 nM,7.4,1.1,7.34,0,O=C(O)c1cc(O)ccc1N=Nc1ccccc1 [NSC 106863],,"HCT-116 (IC-50) [3, 13]: 14.5 µg/mL"
~709 nM,11.3,0.007,,29.52,CC(=O)c1cc(O)c2ccccc2c1O [NSC 111552],,"HCT-116 (IC-50) [3, 13]: 2.2 µg/mL"
~406 nM,,0.01,11.33,1.36,NS(=O)(=O)c1ccc(N=Nc2c(O)c(C(=O)O)cc3ccccc23)cc1 [NSC 134137],,"Kd ([1]; approximate, computed from the thermal shift, listed as 134137, read-out: KD): 406 nM; Kd ([1]; approximate, computed from the thermal shift, listed as NSC134137, read-out: KD): ~406 nM; ΔTm ([1]; thermal shift, 1 mM ligand, 10 μM protein, listed as 134137): 12.30 °C; ΔTm ([1]; thermal shift, 1 mM ligand, 10 μM protein, listed as NSC134137): ~ 12 °C"
~2190 nM,9.3,0.1,9.70,5.48,COc1cc(N=Nc2ccccc2C(=O)O)ccc1O [NSC 153172],,
~1320 nM,10.2,0.004,10.66,5.36,O=C(O)Cc1ccc(N=Nc2c(O)c(C(=O)O)cc3ccccc23)cc1 [NSC 156563],,
~1470 nM,9.99,0.2,10.31,5.62,"CCCCC(=O)OCC(=O)[C@]1(O)Cc2c(O)c3c(c(O)c2[C@@H](O[C@H]2C[C@H](NC(=O)C(F)(F)F)[C@H](O)[C@H](C)O2)C1)C(=O)c1c(OC)cccc1C3=O [NSC 246131, valrubicin, reference compound]",,"Kd [1, 12]: ~1500 nM; IC50 [3]: 0.024 µg/mL"

# Reference: PMC4038399, “Experimental validation of [sequence]^comb virtual ligand screening results for eight proteins yields novel nanomolar and micromolar binders” (Journal of Cheminformatics, 2014)
